In brackets after ≈: the same amount, converted by molar mass. Several values for one entry are separate records, joined by “and”; a condition that tells them apart may be missing. Equal values may be shown once. Read-outs that look alike come from different tables or passages of the source. Marks after values point to notes of the source that are not given here.
How the values were obtained:
Influenza B Panama/45/90 [1] = experiment: microbe, parasite or virus in culture; format: cell-based; settings: Influenza B virus, MDCK, read-out: CPE Inhibition EC50
in vitro [2] = settings: human
HIV-1 RT = target: T1, HIV-1 RT (Human immunodeficiency virus type 1 group M subtype B, UniProt P03366); experiment: Anti-HIV-1 RT assay (recombinant enzyme); format: biochemical
T1 construct: made in house; host or cells: Escherichia coli

HSV-2 = HSV-2 CPE inhibition in HFF cells
Influenza B Panama/45/90 [3] = experiment: microbe, parasite or virus in culture; format: cell-based; settings: Influenza B virus, MDCK, read-out: Neutral Red EC50
in vitro [4] = settings: African green monkey, Neutral Red IC50 (cytotoxic)
Measles Virus [5] = experiment: Measles virus neutral red dye uptake in BSC-1 cells; format: cell-based; settings: Measles morbillivirus, BSC-1
HSV-1 = HSV-1 CPE inhibition in HFF cells
[6] = test system: African green monkey kidney (MA-104) cells
[7] = test system: Influenza A (H1N1) Texas/36/91; experiment: microbe, parasite or virus in culture; format: cell-based, influenza A virus; settings: Influenza A virus, read-out: CPE Inhibition EC50
VZV = VZV plaque reduction assay in HFF cells
[8] = test system: Parainfluenza Type 3 Virus; experiment: organism not typed; format: cell-based; settings: MA104, read-out: Neutral Red EC50
Adenovirus Type 5 [9] = experiment: Adenovirus type 5 neutral red dye uptake in A549 cells; format: cell-based; settings: Human mastadenovirus C, A549, read-out: Neutral Red EC50
[10] = test system: Respiratory Syncytial Virus; experiment: microbe, parasite or virus in culture; format: cell-based; settings: human respiratory syncytial virus, MA104; read-out: Neutral Red EC50
HCMV = HCMV CPE inhibition in HFF cells
in vitro [11] = settings: dog, Neutral Red IC50 (cytotoxic)
in vitro [12] = settings: African green monkey
in vitro [13] = settings: human; remark: listed apart in the source
HIV-1 (strain LAV-1) = experiment: microbe, parasite or virus in culture; format: cell-based
[14] = test system: Influenza A (H3N2) Beijing/32/92; experiment: microbe, parasite or virus in culture; format: cell-based, influenza A virus; settings: Influenza A virus, read-out: CPE Inhibition EC50
Measles Virus [15] = experiment: microbe, parasite or virus in culture; format: cell-based; settings: Measles morbillivirus
[16] = test system: Influenza A (H3N2) Beijing/32/92; experiment: microbe, parasite or virus in culture; format: cell-based, influenza A virus; settings: Influenza A virus, read-out: Neutral Red EC50
[17] = test system: Influenza A (H1N1) Texas/36/91; experiment: microbe, parasite or virus in culture; format: cell-based, influenza A virus; settings: Influenza A virus, read-out: Neutral Red EC50
Hepatitis B Virus (HBV) = experiment: Inhibition of HBV replication in 2.2.15 cells, extracellular (virion) HBV DNA; settings: Hepatitis B virus, 216 h;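 further: extracellular virion HBV DNA in culture medium measured by slot blot hybridization with a 32P-labeled HBV probe, quantified against HBV DNA standards, after 9 days of daily dosing, compared with day 0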
Adenovirus Type 5 [18] = experiment: microbe, parasite or virus in culture; format: cell-based; settings: Human mastadenovirus C, A549, read-out: CPE Inhibition EC50
in vitro [19] = settings: dog
[20] = test system: Parainfluenza Type 3 Virus; experiment: organism not typed; format: cell-based
[21] = test system: Madin Darby canine kidney (MDCK) cells; settings: dog
[22] = test system: Respiratory Syncytial Virus; experiment: microbe, parasite or virus in culture; format: cell-based; settings: human respiratory syncytial virus, MA104, read-out: CPE Inhibition EC50
in vitro [23] = settings: African green monkey; remark: listed apart in the source
in vitro [24] = settings: African green monkey; remark: listed apart in the source
[25] = test system: Influenza A (A/NWS/33 (H1N1)); experiment: Influenza A virus infection in mice; format: in vivo, BALB/c mice
Experimental: Animals: Female 13-15 g specific pathogen-free BALB/c mice were obtained form Simonsen Laboratories (Gilroy, Calif.). They were quarantined 24 h prior to use, and maintained on Wayne Lab Blox and tap water. After being infected, their drinking water contained 0.006% oxytetracycline (Pfizer, New York, N.Y.) to control possible secondary bacterial infections.
Virus: A/NWS/33 (H1N1) was obtained from K. W. Cochran, Univ. of Michigan (Ann Arbor, Mich.). A virus pool was prepared in MDCK cells; this was titrated in mice, ampuled, and stored at −80° C. until used.
Compounds: Robustaflavone was stored at room temperature until used. Ribavirin, used as a positive control, was obtained from ICN Pharmaceuticals (Costa Mesa, Calif.). Vehicles considered included DMSO (Sigma Chemical Co., St. Louis, Mo.), DMF (Sigma), PEG M. W. 200 (Aldrich Chemical Co. Milwaukee, Wis.), 0.4% CMC (Sigma) and 1-methyl-2-pyrrolidinone (MPD, Aldrich).
Arterial Oxygen Saturation (SaO2) Determinations: SaO2 was determined using the Ohmeda Blox 3740 pulse oximeter (Ohmeda, Louisville, Ohio)). The ear probe attachment was used, the probe placed on the thigh of the animal, with the slow instrument mode selected. Readings were made after a 30 second stabilization time on each animal. Use of this device for measuring effects of influenza virus on arterial oxygen saturation have been described.^72
Lung Virus Determinations: Each mouse lung was homogenized and varying dilutions assayed in triplicate for infectious virus in MDCK cells as described previously.^73
4. Effect of robustaflavone in CMC or in DMSO on influenza virus infection in mice. In the study with CMC, robustaflavone was used in dosages of 200 and 100 mg/kg/day; using DMSO vehicle, the dosages were 75 and 37.5 mg/kg/day, with the compound administered i.p. twice daily for 5 days beginning 4 h pre-virus exposure. The mice were used in each dose to monitor effects on SaO2 and death; from an additional group of similarly infected and treated mice, 3 animals were killed on days 3, 5, 7 and 9 to assay for lung score (0=normal, 4=maximal consolidation), weight, and virus titer. Three to four mice were used as toxicity controls, which were weighed prior to treatment and again 18 h after treatment termination, and deaths noted daily. […] Three sets of virus controls were used: Infected-untreated, infected-treated with CMC only, and infected-treated with DMSO only. Twenty animals were used in each of these control groups to monitor SaO2 and death, with 3 additional mice taken in parallel with treated animals to determine effects on lung consolidation and virus titer. Two sets of normal controls were used; one group of three mice was weighed and held in parallel with the toxicity controls. From the second group three mice were killed on days 3 and 9 for comparison of lung score and weight.
Statistical Evaluation: Increase in survivor number was evaluated using chi square analysis with Yates' correction. Mean survival time increases, virus titer and SaO2 value differences were analyzed by t-test. Lung consolidation scores were evaluated by ranked sum analysis.

[26] = MDCK, Influenza A (H1N1) Texas/36/91
[27] = MDCK, Influenza A (H3N2) Beijing/32/92
[28] = CPE Inhibition IC50 (cytotoxic)
[29] = ribavirin in saline, 75 mg/kg/day i.p. bid × 5

With `O=c1cc(-c2ccc(Oc3c(O)cc4oc(-c5ccc(O)cc5)cc(=O)c4c3O)cc2)oc2cc(O)cc(O)c12` [Hinokiflavone (4), hinokiflavone] the EC50 (Influenza B Panama/45/90 [1]) was greater than 1 µg/mL, the “toxicity against uninfected PHA-stimulated human PBM cells (in words)” value (human PBM cells) was “high toxicity” and the CC50 at 14 days (in vitro [2]; HCMV CPE Inhibition CC50) was 2.6 µg/mL (≈ 4.83 µM). For the same compound, the CC50 at 3 days (in vitro [2]; HSV-1 CPE Inhibition CC50) was 77.7 µg/mL (≈ 144 µM), the CC50 at 3 days (in vitro [2]; HSV-2 CPE Inhibition CC50) was 77.5 µg/mL (≈ 144 µM) and the CC50 at 10 days (in vitro [2]; VZV Plaque Reduction CC50) was 16.8 µg/mL (≈ 31.2 µM). For the same compound, the IC50 (HIV-1 RT; Anti-HIV-1 RT IC50, values in parentheses or in words) was 62 µM, the IC50 (HIV-1 RT; HIV-1 RT IC50 (50% inhibition dose)) was 65.4 µM and 62.6 µM and the inhibition at 200 µg/mL (HIV-1 RT; read-out: Anti-HIV-1 RT % Inhibition at 200 μg/ml) was 89%. For the same compound, the “HSV-2 SI (CC50/EC50)” value (HSV-2; HFF Cells) was less than 319, the EC50 (HSV-2; Human alphaherpesvirus 2, HFF, read-out: HSV-2 CPE Inhibition EC50) was greater than 20 µg/mL and the EC50 (Influenza B Panama/45/90 [3]) was 1.9 µg/mL (≈ 3.53 µM). For the same compound, the IC50 (in vitro [4]) was 6 µg/mL (≈ 11.1 µM), the EC50 (Measles Virus [5]) was less than 5 µg/mL and the “HSV-1 SI (CC50/EC50)” value (HSV-1; HFF Cells) was less than 3.9. The EC50 (HSV-1; Human alphaherpesvirus 1, HFF, read-out: HSV-1 CPE Inhibition EC50) was greater than 20 µg/mL, the “Neutral Red IC50 (cytotoxic)” value [6] was 7 µg/mL and the EC50 [7, 26] was greater than 1 µg/mL. For the same compound, the “VZV SI (CC50/EC50)” value (VZV; HFF Cells) was less than 4.2, the EC50 (VZV; Human alphaherpesvirus 3, HFF, read-out: VZV Plaque Reduction EC50) was greater than 4 µg/mL and the EC50 [8] was 5 µg/mL (≈ 9.29 µM). The EC50 (Adenovirus Type 5 [9]) was 19 µg/mL (≈ 35.3 µM), the EC50 [10] was greater than 3.2 µg/mL and the “HCMV SI (CC50/EC50)” value (HCMV; HFF Cells) was less than 3.2. For the same compound, the EC50 (HCMV; Human betaherpesvirus 5, HFF, read-out: HCMV CPE Inhibition EC50) was greater than 0.8 µg/mL, the IC50 (in vitro [11]; Influenza A (H1N1) test) was 2 µg/mL (≈ 3.71 µM) and the IC50 (in vitro [11]; Influenza A (H3N2) test) was 2.2 µg/mL (≈ 4.09 µM). The IC50 (in vitro [11]; Influenza B test) was 2 µg/mL (≈ 3.71 µM), the IC50 (in vitro [12]; CPE Inhibition IC50 (cytotoxic), Respiratory Syncytial Virus test) was 2.5 µg/mL (≈ 4.64 µM) and the IC50 (in vitro [12]; CPI Inhibition IC50 (cytotoxic), Parainfluenza Type 3 Virus test) was 1 µg/mL (≈ 1.86 µM). For the same compound, the IC50 (in vitro [13]) was 9.1 µM, the EC50 (HIV-1 (strain LAV-1); Human immunodeficiency virus 1, PBMC, human PBM cells infected with HIV-1 (strain LAV), read-out: Ant-HIV-1 in PBM cells EC50) was 4.1 µM and the “Selective Index (SI)” value (HIV-1 (strain LAV-1); PBM cells) was less than 1. For the same compound, the EC50 [14, 27] was greater than 3.2 µg/mL, the EC50 (Measles Virus [15]; BSC-1, Measles Virus, read-out: CPI Inhibition EC50) was less than 3 µg/mL and the EC50 [16, 27] was 1.9 µg/mL (≈ 3.53 µM). The EC50 [17, 26] was 1.8 µg/mL (≈ 3.34 µM), the EC50 (Hepatitis B Virus (HBV); read-out: EC50 (50% effective dose), HBV Virion, 2.2.15 cells, extracellular (virion) HBV DNA, 9 days treatment) was greater than 100 µM and the EC90 (Hepatitis B Virus (HBV); read-out: EC90 (90% effective dose), HBV Virion, 2.2.15 cells, extracellular (virion) HBV DNA, 9 days treatment) was greater than 100 µM. It also gave an EC50 (Adenovirus Type 5 [18]) greater than 10 µg/mL, an IC50 (in vitro [19]; CPE Inhibition IC50 (50% cell inhibitory (cytotoxic) concentration), Influenza A (H1N1) test) of 1.4 µg/mL (≈ 2.6 µM) and an IC50 (in vitro [19]; CPE Inhibition IC50 (cytotoxic), Influenza A (H3N2) test) of 1.3 µg/mL (≈ 2.41 µM). For the same compound, the IC50 (in vitro [19]; CPE Inhibition IC50 (cytotoxic), Influenza B test) was 1.2 µg/mL (≈ 2.23 µM) and the EC50 ([20]; MA104, Parainfluenza Type 3 Virus, read-out: CPI Inhibition EC50) was greater than 1 µg/mL.

With `NC(=O)c1ncn([C@@H]2O[C@H](CO)[C@@H](O)[C@H]2O)n1` [Ribavirin, ribavirin, reference compound] the EC50 (Influenza B Panama/45/90 [1]; Influenza B Panama/45/90) was 1.5 µg/mL (≈ 6.14 µM), the EC50 (Influenza B Panama/45/90 [3]) was 0.48 µg/mL (≈ 1.97 µM) and the EC50 (Measles Virus [5]) was 1 µg/mL (≈ 4.09 µM). The “CPE Inhibition IC50 (cytotoxic)” value [21] was greater than 1000 µg/mL, the EC50 ([7]; H1N1, MDCK) was 1.9 µg/mL (≈ 7.78 µM) and the EC50 [22] was 12 µg/mL (≈ 49.1 µM). The EC50 [8] was 17 µg/mL (≈ 69.6 µM), the IC50 (in vitro [23]) was 150 µg/mL (≈ 614 µM) and the EC50 [10] was 6 µg/mL (≈ 24.6 µM). The IC50 (in vitro [12]; [28]) was 120 µg/mL (≈ 491 µM), the IC50 (in vitro [12]; CPI Inhibition IC50 (cytotoxic)) was 245 µg/mL (≈ 1000 µM) and the EC50 ([14]; H3N2, MDCK) was 4.1 µg/mL (≈ 16.8 µM). The EC50 (Measles Virus [15]; BSC-1, read-out: CPI Inhibition EC50) was 3 µg/mL (≈ 12.3 µM), the EC50 ([16]; H3N2, MDCK) was 5.7 µg/mL (≈ 23.3 µM) and the EC50 ([17]; H1N1, MDCK) was 1.4 µg/mL (≈ 5.73 µM). The IC50 (in vitro [24]) was 150 µg/mL (≈ 614 µM), the IC50 (in vitro [19]; CPE Inhibition IC50 (50% cell inhibitory (cytotoxic) concentration)) was 562 µg/mL (≈ 2300 µM) and the IC50 (in vitro [19]; [28]) was 562 µg/mL (≈ 2300 µM). The “inhibition of the infection, in words” value ([25]; ribavirin 75 mg/kg/day, positive control) was “highly active”, the “Infected, Treated MST” value [25, 29] was >21.0** days and the “Infected, Treated Mean SaO2” value [25, 29] was 87.1** %. The “Infected, Treated Surv/Total” value [25, 29] was 10/10** and the EC50 ([20]; MA104, read-out: CPI Inhibition EC50) was 25 µg/mL (≈ 102 µM).
